# Laboratory results taken from patent US7998988B2, “Biphenyl compounds useful in the treatment or prevention of cardiovascular disorders” (Bayer Schering Pharma Aktiengellschaft, priority 2005, dated 2011).
# System: saphenous artery rings
# Test: Vasorelaxant effect in vitro (phenylephrine-contracted artery rings)
# Assay type: cell-based
# Conditions: Oryctolagus cuniculus, rabbit saphenous artery rings, contraction induced by phenylephrine
# Description: Rabbits are anesthetized and sacrificed by intravenous injection of thiopental sodium (about 50 mg/kg) and exsanguinated. The saphenous artery is removed and divided into rings 3 mm wide. The rings are mounted singly on in each case a pair of triangular hooks open at the end and made of 0.3 mm-thick special wire (Remanium®). Each ring is placed under an initial tension in 5 ml organ baths with Krebs-Henseleit solution which is at 37° C., is gassed with 95% 02/5% CO2 and has the following composition: NaCl 119 mM; KCl 4.8 mM; CaCl2×2H2O 1 mM; MgSO4×7 H2O 1.4 mM; KH2PO4 1.2 mM; NaHCO3 25 mM; glucose 10 mM; bovine serum albumin 0.001%. The force of contraction is detected with Statham UC2 cells, amplified and digitized via A/D converters (DAS-1802 HC, Keithley Instruments, Munich) and recorded in parallel on chart recorders. Contractions are induced by addition of phenylephrine.
# After several (generally 4) control cycles, the substance to be investigated is added in each further run in increasing dosage, and the height of the contraction achieved under the influence of the test substance is compared with the height of the contraction reached in the last preceding run. The concentration necessary to reduce the contraction reached in the preceding control by 50% is calculated from this (IC50). The standard application volume is 5 μl. The proportion of DMSO in the bath solution corresponds to 0.1%.
row,SMILES,IC50 [nM]
1,"COc1ccc(CCc2ccc(F)cc2/C=C/C(CCc2ccc(-c3noc(=O)[nH]3)cc2)Cc2ccc(C(=O)O)cc2)cc1 (single isomer, unassigned) [Example 11, E-4-(4-{5-Fluoro-2-[2-(4-methoxyphenyl)ethyl]phenyl}-2-{2-[4-(5-oxo-4,5-dihydro-[1,2,4]oxadiazol-3-yl)phenyl]ethyl}but-3-enyl)benzoic acid]",724
2,"O=C(O)c1ccc(CC(/C=C/c2ccccc2OCc2ccc(-c3ccc(C(F)(F)F)cc3)cc2)CCc2ccc(-c3noc(=O)[nH]3)cc2)cc1 (single isomer, unassigned) [Example 18]",490
3,"CC(C)(C)c1ccc(COc2ccc(F)cc2/C=C/C(CCc2ccc(-c3noc(=O)[nH]3)cc2)Cc2ccc(C(=O)O)cc2)cc1 (single isomer, unassigned) [Example 51]",505
4,"O=C(O)c1ccc(CCC(/C=C\c2ccccc2OCc2ccc(-c3ccc(C(F)(F)F)cc3)cc2)Cc2ccc(-c3noc(=O)[nH]3)cc2)cc1 (single isomer, unassigned) [Example 57]",714
5,"CC(C)(C)c1ccc(COc2ccccc2/C=C/C(CCc2ccc(C(=O)O)cc2)Cc2ccc(-c3noc(=O)[nH]3)cc2)cc1 (single isomer, unassigned) [Example 66]",263
6,"CC(C)(C)c1ccc(COc2ccccc2/C=C/C(CCCCC(=O)O)CCc2ccc(-c3noc(=O)[nH]3)cc2)cc1 (single isomer, unassigned) [Example 71, E-8-[2-(4-tert-Butylbenzyloxy)phenyl]-6-{2-[4-(5-oxo-4,5-dihydro-[1,2,4]oxadiazol-3-yl)phenyl]-ethyl}oct-7-enoic acid]",898
7,"CC(C)(C)c1ccc(COc2ccccc2/C=C/C(CCc2ccc(C(=O)O)cc2)Cc2ccc(-c3n[nH]c(=O)o3)cc2)cc1 (single isomer, unassigned) [Example 78, 4-{(4E)-5-{2-[(4-tert-Butylbenzyl)oxy]phenyl}-3-[4-(5-oxo-4,5-dihydro-1,3,4-oxadiazol-2-yl)benzyl]pent-4-en-1-yl}benzoic acid]",13
8,"CCCCCOc1ccccc1/C=C/C(CCc1ccc(C(=O)O)cc1)Cc1ccc(-c2noc(=O)[nH]2)cc1 (single isomer, unassigned) [Example 92]",390
9,"CCCCCCOc1ccccc1/C=C/C(CCc1ccc(C(=O)O)cc1)Cc1ccc(-c2noc(=O)[nH]2)cc1 (single isomer, unassigned) [Example 95]",410
10,"O=C(O)c1ccc(CCC(/C=C\c2ccccc2OC(F)(F)F)Cc2ccc(-c3noc(=O)[nH]3)cc2)cc1 (single isomer, unassigned) [Example 96]",1330
11,"O=C(O)c1ccc(CN(CCc2ccc(-c3noc(=O)[nH]3)cc2)CCc2ccccc2OCc2ccc(-c3ccc(C(F)(F)F)cc3)cc2)cc1 [Example 1, 4-[({2-[4-(5-Oxo-4,5-dihydro-[1,2,4]oxadiazol-3-yl)phenyl]ethyl}-{2-[2-(4′-trifluoromethylbiphenyl-4-ylmethoxy)phenyl]ethyl}amino)methyl]benzoic acid]",26
12,CC(C)(C)c1ccc(COc2ccccc2/C=C/C(CCCCC(=O)O)CCc2ccc(-c3n[nH]c(=O)o3)cc2)cc1 (stereo not shown) [Example 74],290
13,"CC(C)(C)c1ccc(COc2ccccc2/C=C/C(CCc2ccc(-c3n[nH]c(=S)[nH]3)cc2)Cc2ccc(C(=O)O)cc2)cc1 (stereo not shown) [Example 76, 4-((3E)-4-{2-[(4-tert-Butylbenzyl)oxy]phenyl}-2-{2-[4-(5-thioxo-4,5-dihydro-1H-1,2,4-triazol-3-yl)phenyl]ethyl}but-3-en-1-yl)benzoic acid]",851
14,"CC(C)(C)c1ccc(COc2ccccc2/C=C/C(CCc2ccc(C(=O)O)cc2)Cc2ccc(-c3n[nH]c(=O)[nH]3)cc2)cc1 (stereo not shown) [Example 80, 4-{(4E)-5-{2-[(4-tert-Butylbenzyl)oxy]phenyl}-3-[4-(5-oxo-4,5-dihydro-1H-1,2,4-triazol-3-yl)benzyl]pent-4-en-1-yl}benzoic acid]",74
15,"CC(C)(C)c1ccc(COc2ccccc2/C=C/C(CCc2ccc(C(=O)O)cc2)Cc2ccc(-c3n[nH]c(N)n3)cc2)cc1 (stereo not shown) [Example 81, 4-((4E)-3-[4-(5-Amino-1H-1,2,4-triazol-3-yl)benzyl]-5-{2-[(4-tert.-butylbenzyl)oxy]phenyl}pent-4-en-1-yl)benzoic acid]",422
16,"CC(C)(C)c1ccc(COc2ccccc2/C=C/C(CCCCC(=O)O)Cc2ccc(-c3n[nH]c(=O)o3)cc2)cc1 (stereo not shown) [Example 85, E-8-[2-(4-tert-Butylbenzyloxy)phenyl]-6-[4-(5-oxo-4,5-dihydro-[1,3,4]oxadiazol-2-yl)benzyl]oct-7-enoic acid]",58

# Same assay, conditions: rabbit saphenous artery rings, contraction induced by phenylephrine
row,SMILES,IC50 [nM]
1,"O=C(O)c1ccc(CC(/C=C/c2ccccc2OCc2ccc(-c3ccc(C(F)(F)F)cc3)cc2)CCc2ccc(-c3noc(=O)[nH]3)cc2)cc1 (single isomer, unassigned) [Example 19]",850
2,"O=C(O)c1ccc(CCC(/C=C/c2ccccc2OCc2ccc(-c3ccc(C(F)(F)F)cc3)cc2)Cc2ccc(-c3noc(=O)[nH]3)cc2)cc1 (single isomer, unassigned) [Example 56, E-4-{3-[4-(5-Oxo-4,5-dihydro-[1,2,4]oxadiazol-3-yl)benzyl]-5-[2-(4′-trifluoromethylbiphenyl-4-ylmethoxy)phenyl]pent-4-enyl}benzoic acid]",635
3,"CC(C)(C)c1ccc(COc2ccccc2/C=C/C(CCc2ccc(C(=O)O)cc2)Cc2ccc(-c3noc(=O)[nH]3)cc2)cc1 (single isomer, unassigned) [Example 67]",153
